Experimental data as given in patent US7410971B2, “1,2-di(cyclic)substituted benzene compounds” (Eisai R&D Management Co., Ltd., priority 2003, dated 2008).

Assays:
Jurkat cells = test: Jurkat cell adhesion system (adhesion to immobilized human fibronectin, PMA-stimulated); assay type: cell-based; details: concentration inhibiting by 50% the PMA-stimulated increase in number of adhered Jurkat cells on human fibronectin
Experimental: Evaluation of Compounds in Jurkat Cell Adhesion System
<Immobilization of Human Fibronectin in 96-Well Plate>
Human fibronectin (Becton Dickinson Biosciences) was diluted with phosphate-buffered saline (hereinafter abbreviated as PBS; Sigma) to 0.1-0.01 μg/ml, and the diluted solution was added to a 96-well plate (Becton Dickinson) at 50μ/well, and allowed to stand overnight at 4° C. On the following day, the supernatant was removed from the plate, and then PBS containing 1% bovine serum albumin (hereinafter abbreviated as BSA; Sigma) was added thereto at 100 μl/well and incubation was performed at 37° C. for 2 hours in a CO2 incubator (Hirasawa).
The supernatant was removed from each plate and Jurkat cells suspended in RPMI-1640 (Sigma) containing 1 mg/ml BSA were added at 80 μl/well for 2.5×10^5 cells/well. The compound diluted to different concentrations with RPMI-1640 containing 1 mg/ml BSA was immediately added at 10 μl/well, and then 100 nM phorbol myristate acetate (hereinafter abbreviated as PMA; Sigma) in RPMI-1640 containing 1 mg/ml BSA was added at 10 μl/well and the plate was incubated in a CO2 incubator at 37° C. for 45-60 minutes. The supernatant was removed from the plate and each well was washed several times with 100 μl/well of RPMI-1640, after which 50 mM citrate buffer (pH 5.0) containing 3.75 mM p-nitrophenol-N-acetyl-β-D-glucosaminide (Sigma) and 0.25% Triton X-100 (Sigma) were added at 60 μl/well, and the mixture was placed in a CO2 incubator and incubated at 37° C. for 45 minutes. After incubation, 50 mM glycine buffer (pH 10.4) containing 5 mM EDTA was added at 90 μl/well, and the absorbance at 405 nm was measured with an EL340 Automated Microplate Reader (BIO-TEK) to determine the adhered cell count. The concentration of each compound which inhibited the increase in the number of adhered cells by the PMA-stimulation by 50% was recorded as the IC50 (μM).

[1] = tested on: human peripheral blood neutrophils; test: Human peripheral blood neutrophil adhesion system (adhesion to immobilized HUVEC, PMA-stimulated); assay type: cell-based; details: concentration inhibiting by 50% the PMA-stimulated increase in number of adhered BCECF-AM labeled neutrophils on HUVEC immobilized plate
Experimental: Evaluation of Compounds in Human Peripheral Blood Neutrophil Adhesion System
<Preparation of Human Peripheral Blood Neutrophils>
To a plastic centrifugation tube containing 100 units of heparin sodium (Shimizu Pharmaceutical) was added 25 ml of fresh blood sampled from a healthy human. After adding and mixing therewith 8 ml of physiological saline (Otsuka Pharmaceutical) containing 6% Dextran (Nacalai), the mixture was allowed to stand room temperature for 45 minutes for sedimentation of the erythrocytes. The resultant supernatant was transferred to another plastic centrifugation tube and combined with an equivalent volume of phosphate-buffered saline (hereinafter abbreviated as PBS; Sigma), and then centrifuged at 1600 rpm for 7 minutes at room temperature. The obtained hematocyte fraction was suspended in 4 ml of PBS, and the suspension was superposed on 4 ml of Ficoll-Paque™ PLUS (Amersham Biosciences). The resultant bilayer liquid was centrifuged at 2000 rpm for 30 minutes at room temperature, after which the supernatant was removed and the precipitate was suspended in 10 ml of PBS and centrifuged at 1200 rpm for 7 minutes, and the supernatant was removed. The resulting precipitate was suspended in 0.5 ml of PBS again, and then 10 ml of distilled water (Otsuka Pharmaceutical) was added, 0.5 ml of an aqueous solution containing 3 M NaCl was immediately added to restore isotonicity, the mixture was centrifuged at 1200 rpm for 7 minutes, and the obtained precipitate was suspended in PBS containing 1 mg/ml bovine serum albumin (hereinafter abbreviated as BSA; Sigma) again and stored in ice until being used for the experiment.
<Fluorescent Labeling of Human Peripheral Blood Neutrophils>
The obtained neutrophils were suspended in PBS containing 1 mg/ml BSA at 2×10^7 cells/ml. BCECF-AM (Dojin) was added to a final concentration of 5 μM, and the mixture was incubated at 37° C. for 45 minutes. It was then rinsed twice with PBS containing 1 mg/ml BSA by centrifugation, suspended again in PBS containing 1 mg/ml BSA at 5×10^7 cells/ml, and stored in ice until use.
<Preparation of HUVEC Immobilized Plate>
Human umbilical vein endothelial cells (hereinafter abbreviated as HUVEC) were suspended in MCDB131 medium (Chlorella Industries) containing 10% fetal calf serum and 30 μg/ml endothelial cell growth supplement (Becton Dickinson Bioscience). The suspension was added at 7.5×10^3 cells/well to a 96-well plate (Iwaki) immobilized with type I collagen, and cultured for 3 days in a CO2 incubator (Hirasawa). Upon confirming confluency of the cells, the supernatant was discarded, the plate was rinsed twice with PBS, and then PBS containing 0.1% glutaraldehyde (Kanto Kagaku) was added at 100 μl/well and the HUVECs were immobilized for 5 minutes. The supernatant was discarded and the plate was washed twice with PBS, and then PBS was added at 100 μl/well and the mixture was stored at 4° C. until use.
To 6.5 ml of RPMI-1640 medium (Sigma) containing 1 mg/ml of BSA were added 0.5 ml of a suspension of BCECF-AM labeled neutrophils at 5×10^7/ml stored in ice, which was mixed, and the mixture was added at 80 μl/well to a HUVEC immobilized plate. […] The supernatant was removed from the plate, which was then washed several times with RPMI-1640 at 100 μl/well, and then PBS containing 0.1% NP-40 (Calbiochem) was added thereto at 100 μl/well and the fluorescent intensity was measured with an ARVO™SX 1420 multi label counter (Wallac) to determine the number of adhered cells. […]

[2] = tested on: colon-infiltrating neutrophils (myeloperoxidase enzyme activity); test: Oxazolone-induced colon neutrophil infiltration model; assay type: in vivo, Balb/c mice; details: Mus musculus, po, 30 mg/kg orally 30 minutes prior to intrarectal oxazolone, colon myeloperoxidase activity 4 hours after, vs oxazolone control group, read-out: Inhibitory rate (%)
Experimental: Evaluation of Compounds in Oxazolone-Induced Colon Neutrophil Infiltration Model
<Sensitization with Oxazolone>
Five- to six-week-old male Balb/c mice (Charles River Japan) were shaven at the abdomen to an approximately 2 cm square area. A 100% ethanol solution containing 3% 4-ethoxymethylene-2-phenyl-2-oxazolin-5-one (hereinafter referred to as “oxazolone”; Sigma) was applied at 150 μl onto the abdomen of each mouse.
<Preparation of Emulsion Containing Oxazolone>
Distilled water (Otsuka Pharmaceutical) was added in an equivalent volume to 100% peanut oil (Kanto Kagaku) containing 1% oxazolone, and the components were vigorously mixed with a glass syringe (Top Co.), to prepare an emulsion containing 0.5% oxazolone.
<Induction with Oxazolone>
The mice were fasted on the 3rd day after oxazolone sensitization, and were injected with 100 μl of the emulsion containing 0.5% oxazolone prepared in the way described above intrarectally at a site approximately 3 cm from the anus under ether anesthesia on the 4th day.
<Colon-Infiltrating Neutrophil Assay>
Each compound was suspended or dissolved in an aqueous solution containing 0.5% methyl cellulose (Wako), and orally administered at 30 mg/kg 30 minutes prior to the intrarectal injection of oxazolone emulsion. Four hours after the intrarectal injection of oxazolone, mice were sacrificed by cervical dislocation, and colons were extirpated, dissected in the longitudinal direction, washed with physiological saline, and transferred to ice-cooled plastic centrifugation tubes. After adding 1 ml of 50 mM potassium phosphate buffer (hereinafter abbreviated as KPB) (pH 6.0) to the tube, and the tissue were homogenized with PHYSCOTRON (Microtec Nition Co., Ltd.), 2 ml of 50 mM KPB (pH 6.0) was added and the mixture was centrifuged at 3000 rpm, 4° C. for 10 minutes and the supernatant was removed. To the resultant precipitate was added 1 ml of 50 mM KPB (pH 6.0) containing 0.5% hexadecyltrimethyl-ammonium bromide (Sigma), and freeze-thawed 3 to 5 times using liquid nitrogen and hot water, centrifuged at 3000 rpm, 4° C. for 10 minutes to yield a supernatant. The myeloperoxidase enzyme activity in the supernatant was assayed in the following manner. Specifically, to 10 μl of the obtained supernatant was added 200 μl of 50 mM KPB (pH6.0) containing 0.017% o-dianisidine (Sigma) and 0.0005% hydrogen peroxide (Wako), incubated at 37° C., and the change in absorbance at 450 nm was continuously measured for 1 minute using an EL340 Automated Microplate Reader (BIO-TEK) in kinetic mode. The units were the rate of change in absorbance per minute (mO.D./min.). With regard to the effect of each compound, the inhibitory rate (%) with respect to the oxazolone control group, i.e. the oxazolone-injected/compound-free group, was shown in the table 3.

| SMILES | IC50 (Jurkat cells) | IC50 [1] | inhibition in vivo at 30 mg/kg [2] |
| --- | --- | --- | --- |
| CCCCN1CCN(c2ccc(N3CCC(OC)CC3)cc2C2=CCC(C(C)(C)C)CC2)CC1.Cl (racemic) [Example 7, 1-Butyl-4-[2-(4-t-butylcyclohex-1-enyl)-4-(4-methoxypiperidin-1-yl)phenyl]piperazine hydrochloride] | 2500 nM | 9.8 µM | 37% |
| CCCCN1CCN(c2ccccc2C2CC(C)(C)CC(C)(C)C2)CC1.Cl [Example 8, 1-Butyl-4-[2-(3,3,5,5-tetramethylcyclohexyl)phenyl]piperazine hydrochloride] | 2200 nM | 22.5 µM | 22% |
| CCCCN1CCN(c2ccccc2C2CCCCC2)CC1.Cl [Example 14, 1-Butyl-4-(2-cyclohexylphenyl)piperazine hydrochloride] | 4900 nM | 19.7 µM | 64% |
